Experimental data: patent US12435074B2, “Physics-driven discovery of novel small therapeutic compounds for use as a BCL-2 inhibitor” (BAHCESEHIR UNIVERSITESI, priority 2020, dated 2025)

Tested on: HCT-116 colon cancer cell line
Assay: MTT cell proliferation assay on HCT-116 cells
Assay type: cell-based
Experimental: For cell culture experiments various cancer cell lines, HCT-116 colon cancer, U87-MG glial tumor, MCF7 breast cancer cell lines were used. Cells were seeded with high glucose DMEM medium (Biosera) supplemented with 10% FBS (Gibco) and 1X penicillin/streptomycin (Multicell). Twenty-four hours prior to molecule treatment, 10,000 cells were seeded into each well of 24-well cell culture plates. Molecules were used by preparing 4 mM stock solution in DMSO (Amresco). For molecule treatment, molecule stock solutions were diluted in DMEM with 10% FBS and added onto cells in each corresponding well. Final concentration of vehicle DMSO was 2% at maximum. […] We calculated the number of cells to be seeded to make sure that none of the cells reaches more than 60% confluency during the treatment period, as higher plate confluency levels would slow down cell proliferation independently from the molecule treatment.
Values of half-maximal inhibitory concentration were (IC50) determined by MTT cell proliferation assays. […] 570 nm absorbance values were recorded and IC50 values were calculated by dose response—inhibition curves and nonlinear regression analysis on GraphPad Prism 8 software. […] Following the initial incubation day, molecules were added and after incubation with MTT at 37° C. for 4 hours, formazan was solubilized with DMSO (Sigma-Aldrich, St. Louis, USA) and absorbance was measured at 570 nm. […]

- IC50 (Homo sapiens, 72 h, single treatment, three days results, 570 nm absorbance, read-out: IC50 (half-maximal inhibitory concentration)): 130 µM
SMILES: CCC(C)(C)C1CCc2c(sc(NC(=O)c3cc(-c4ccc(Cl)s4)nc4ccccc34)c2C(N)=O)C1 (centres unmarked) [compound of formula I]
- proliferation of HCT-116 cells compared to vehicle group (FIG. 1, versus vehicle (max 2% DMSO)): reduced proliferation and apoptotic cell structures
